{"source": "patent US20250041460A1", "about": "“LANTHANIDE-BASED CONTRAST AGENTS HAVING IMPROVED STABILITY AND METHODS FOR THEIR PRODUCTION AND PURIFICATION” (Inventure, LLC, priority 2023, published 2025)", "assay": "Metastables test: challenge with cation exchange resin (Purolite C150), UV 274 nm peak", "format": "physicochemical", "text": "FIGS. 3 and 4 show the relative and absolute stability of Applicant's disclosed TSA′ Gd Product as compared to two commercially available and frequently used MRI contrast agents Dotarem® and Clariscan®. The data shown in FIGS. 3 and 4 were obtained as follows. Exposing the product to a cation retaining resin, any free gadolinium ions in the sample are retained on the resin. Since the free gadolinium ions are continually removed, the equilibrium that would normally slow the decomposition of gadolinium DOTA metastable compounds is shifted toward decomposition. […] Gadolinium DOTA complex treated with xylenol orange has a characteristic peak at 274 nm in the ultraviolet spectrum. The amount of metastable gadolinium DOTA complex in the mixture can be inferred by measuring the decrease in this peak height with an ultraviolet spectrometer.\nThe test procedure used to obtain the foregoing results was as follows: • 1. Expose the resin to water for 24 hours. • 2. Measure the 274 nm peak height of the sample just prior to exposure to resin. This is the initial time point. • 3. Combine one equivalent of resin with one equivalent of the sample and agitate. • 4. […]\nA metastable test is used to quantify ideal twisted square antiprismatic (TSA′) locked structures (TSA′ specification is greater than 99.5%). […]\nThe UV spectra for the time points were acquired over a range of 250-350 nm. The absorbance for the peak at 274 nm was corrected for changes in baseline by linearly interpolating the baseline from before and after the group of peaks around 274 nm (i.e., approximately from 270 to 280 nm) and subtracting the interpolated baseline value at 274 nm from the absorbance of the 274 nm peak maximum.\nFor the analysis of a time course experiment, it is useful to plot the corrected absorbances of the 274 nm peak as a percentage of the corrected absorbances of the 274 nm peak at the first time point versus time. […]", "key": {"[1]": {"settings": "after resin purification process of Example 7"}}, "data": [{"compound": "CNC[C@H](O)[C@@H](O)[C@H](O)[C@H](O)CO.O=C([O-])CN1CCN(CC(=O)[O-])CCN(CC(=O)O)CCN(CC(=O)[O-])CC1.[Gd+3]", "note": "[TSA′ Gd Product, gadoterate meglumine]", "values": [{"measurement": "ideal TSA' cages", "setting": "[1]", "result": 99.98, "unit": "%"}, {"measurement": "non ideal (defective) cages", "setting": "[1]", "result": 200, "unit": "PPM"}, {"measurement": "stability compared to Dotarem and Clariscan (FIGS. 3-5)", "setting": "cation retaining resin, 274 nm peak height, up to 120 minutes", "result": "more stable"}]}]}
